These results are taken from US20260364088A1, “TASL MIMICKING MOLECULES AND APPLICATIONS THEREOF” (CEMM - FORSCHUNGSZENTRUM FÜR MOLEKULARE MEDIZIN GMBH, priority 2022, published 2026).

One test has as its system IRF5. As to the kind of experiment: Microscopy-based IRF5 nuclear translocation assay in CAL-1 cells. As to conditions: human monocytic and pDC cell lines. How it is done: CAL-1, THP1 or human primary cells were incubated with dTASL1 and other identified compounds (or the corresponding volume of DMSO vehicle) for 24 h or 48 h at the indicated concentration and subsequently stimulated with R848 (5 μg/ml) for the indicated time. Supernatant or cells were recovered for ELISA, SDS-PAGE or microscopy-based analysis.
5×10^5 CAL-1 cells in 500 μl medium (wildtype, drug-treated or gene-deficient as indicated) were seeded on poly-L-lysine hydrobromide (P6282, Sigma-Aldrich)-coated coverslips in 24-well cell culture plates and immediately stimulated with 5 μg/ml R848 (Invivogen) or left unstimulated. Afterwards, medium was removed and cells were fixed with 4% formaldehyde in PBS for 15 minutes at room temperature (RT), followed by blocking and permeabilization with 5% FBS and 0.3% Triton X-100 in PBS for 1 h at RT. […]
Images were acquired on a Zeiss LSM-980 equipped with an AiryScan2 detector and processed in Zeiss ZEN version 3.6. Computational image analysis was performed with CellProfiler version 4.2.4 and data analyzed in R version 4.2.1 facilitating the following packages: ‘tidyverse’, ‘data.table’ and ‘ggpubr’. In brief nuclei and cytoplasmic regions were identified and nuclear to cytoplasmic median intensity ratios were calculated on a single cell level. […]

The subject of test [1] is TNF production in human peripheral blood mononuclear cells (PBMCs). In words: TNF ELISA, R848-stimulated PBMCs. Type of test: cell-based. As to conditions: bulk PBMCs, dTASL1 10 µM 24 h, R848 (5 μg/ml) 16 h, n=8. The text has this:
HEK293T cells and THP1 cells were purchased from ATCC, THP1 DUAL/ISRE reporter cell lines from Invivogen. CAL-1 cells were provided by T. Maeda (Nagasaki University). Cell lines—except for CAL-1—were authenticated by short tandem repeat profiling and regularly tested for mycoplasma contamination. Human primary PBMCs were isolated from the blood of anonymous healthy donors as well as SLE patients included in our biobank approved by the ethics committee of the Medical University of Vienna (EK2071/2020 and EK1075/2021). CD14^+ monocytes were purified by magnetic-activated cell sorting (Miltenyi Biotec, #130-050-201) according to the manufacturers protocol. Purity of CD14^+ cells ranged between 80.8% and 94.2% as determined by flow cytometry analysis. […]
Given that all evidence obtained seems to confirm the mechanistic precision of this chemical agent, any further consideration of assessing the therapeutic potential required evidence for activity in human primary cells relevant for SLE pathophysiology. The effect of dTASL1 in human peripheral blood mononuclear cells (PBMCs) was assessed. […] The impact of dTASL1 on TLR7/8 responses by directly monitoring IRF5 by confocal microscopy in B cells was assessed.

The structures appear in SMILES notation.

As to `CCOc1ccc(-c2cc(C(=O)NCCCN3CCCCC3C)c3ccccc3n2)cc1` (centres unmarked) [dTASL1, 2-(4-ethoxyphenyl)-N-(3-(2-methylpiperidin-1-yl)propyl) quinoline-4-carboxamide], in the test with IRF5, the “TLR7/8-induced IRF5 activation” value is “specifically impairs TLR7/8-induced IRF5 activation”. In addition, in test [1], the TNF production result is given as “potently impaired TNF”.
